Data as given in US20090048278A1, “Novel Quinazoline-2,4-Diamine Derivatives and Their Use as Modulators of Small-Conductance Calcium-Activated Potassium Channels” (priority 2005, published 2009).
pIC50: −log10 of the molar value. Where a name gives a salt, the structure may show the parent alone. One block for each molecule: values may come before it.

What was measured:
[1] = molecular target: T1, hSK3 channels (Homo sapiens, UniProt Q9UGI6); assay: Whole-cell patch-clamp recording of SK3 current in HEK293 cells expressing hSK3 channels; type: cell-based; conditions: current at −75 mV, free Ca2+ 0.3-0.4 μM, room temperature, read-out: Ki value (concentration required for decreasing the baseline current to 50% of the initial current)
T1 construct: expressed in transfected cells; host or cells: HEK293
Description: The ionic current through small-conductance Ca^2+-activated K^+ channels (SK channels, subtype 3) was recorded using the whole-cell configuration of the patch-clamp technique.
HEK293 tissue culture cells expressing hSK3 channels were grown in DMEM (Dulbecco's Modified Eagle Medium) supplemented with 10% FCS (foetal calf serum) at 37° C. in 5% CO2. At 60-80% confluency, cells were harvested by trypsin treatment and seeded on cover slips.
Cells plated on coverslips are placed in a 15 μl perfusion chamber (flowrate ˜1 ml/min) mounted on an inverted microscope placed on a vibration-free table in a grounded Faraday cage. The experiments were performed at room temperature (20-22° C.). […] Data were stored directly on the hard-disk and analysed by IGOR software (Wavemetrics, Lake Oswega, Oreg., USA).
The whole-cell configuration of the patch-clamp technique was applied. […] Cell capacitance was electronically compensated and the resistance between the pipette and the cell interior (the series resistance, R^5) was measured and compensated for. […]
The intracellular (pipette) solution contained: 154 mM KCl, 10 mM HEPES, 10 mM EGTA. Concentrations of CaCl2 and MgCl2 needed to obtain the desired free concentrations of Ca^2+ (0.3-0.4 μM, Mg^2+ always 1 mM) were calculated by EqCal software (Cambridge, UK) and added. […]

SMILES: CN(C)c1ccc(CNc2nc(NCc3ccc(F)c(F)c3)nc3ccccc23)cc1 [Example 5, N^2-(3,4-Difluorobenzyl)-N^4-(4-dimethylaminobenzyl)quinazoline-2,4-diamine]
- melting point: 59 to 60 °C

SMILES: Fc1ccc(CNc2nc(NCc3ccc(F)c(F)c3)c3ccccc3n2)cc1F (as salt: HCl) [Example 2, N^2,N^4-Bis(3,4-difluorobenzyl)quinazoline-2,4-diamine]
- melting point: 275 to 276 °C

SMILES: NCc1cccc(CNc2nc(NCc3ccc(F)c(F)c3)c3ccccc3n2)c1 [Example 3, N^2-(3-Aminomethylbenzyl)-N^4-(3,4-difluorobenzyl)quinazoline-2,4-diamine]
- melting point: 148 to 149 °C

SMILES: Clc1ccc(CNc2nc(NC3CCCc4ccccc43)c3ccccc3n2)cc1 (centres unmarked) (as salt: HCl) [Example 11, N^2-(4-Chlorobenzyl)-N^4-(1,2,3,4-tetrahydronaphthalen-1-yl)quinazoline-2,4-diamine]
- melting point: 166 to 167 °C

Other lines, results leading:

- melting point: 86 to 87 °C
SMILES: Clc1ccc(CNc2nc(N3CCCCC3c3ccccc3)nc3ccccc23)cc1 (centres unmarked) [Example 6, (4-Chlorobenzyl)-[2-(2-phenylpiperidin-1-yl)quinazolin-4-yl]amine]

- pIC50 [1]: 6.52
SMILES: N#CCCN(Cc1ccccc1)c1nc(NCc2ccc(Cl)cc2)c2ccccc2n1 [Example 8, N^2-Benzyl-N^4-(4-chlorobenzyl)-N^2-(cyanoethyl)quinazoline-2,4-diamine]

- melting point: 263 to 264 °C
SMILES: Clc1ccc(CNc2nc(NCc3ccc(Cl)cc3)c3ccccc3n2)cc1 (as salt: HCl) [Example 1, N^2,N^4-Bis(4-chlorobenzyl)quinazoline-2,4-diamine]

- melting point: 188 to 190.5 °C
SMILES: OCCN(Cc1ccccc1)c1nc(NCc2ccc(Cl)cc2)c2ccccc2n1 [Example 7, N^2-Benzyl-N^4-(4-chlorobenzyl)-N^2-(hydroxyethyl)quinazoline-2,4-diamine]
